From patent US8241845B2, “Steroid 5α-reductase” (Health Research Inc., priority 2005, dated 2012)

T1: SRD5AIII (Homo sapiens, UniProt Q9H8P0)
T1 construct: expressed in transfected cells; host or cells: CV-1 (monkey kidney) cells infected with Ad-SRD5AIII; cell-free homogenate
T1 sequence (Q9H8P0 1-318): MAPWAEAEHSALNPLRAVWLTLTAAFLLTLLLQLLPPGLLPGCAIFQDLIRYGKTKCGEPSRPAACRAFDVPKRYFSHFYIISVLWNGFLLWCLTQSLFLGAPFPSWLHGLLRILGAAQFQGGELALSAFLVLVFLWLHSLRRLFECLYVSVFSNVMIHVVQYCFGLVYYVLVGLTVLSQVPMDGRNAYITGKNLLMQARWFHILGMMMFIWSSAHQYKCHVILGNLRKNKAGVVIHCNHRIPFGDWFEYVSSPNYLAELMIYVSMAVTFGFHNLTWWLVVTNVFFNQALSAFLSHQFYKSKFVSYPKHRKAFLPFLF

B1: SRD5AIII: novel steroid 5α-reductase isozyme, 318 amino acids, SEQ ID NO:2 (protein)
chain: T1 sequence (Q9H8P0 1-318)
modifications: human

How the values were obtained:
[1] = system: SRD5A; settings: cited from earlier work
[2] = system: prostate cancer (CaP); settings: Thompson et al. 2003; cited from earlier work
[3] = system: prostate cancer (CaP); experiment: Treatment of men with prostate cancer (CaP) with SRD5A inhibitors; format: in vivo, human; settings: patients at Roswell Park Cancer Institute
[4] = biological target: T1, SRD5AIII; experiment: Recombinant SRD5AIII in vitro assay (conversion of T to DHT, TLC); format: biochemical
Experimental: Recombinant SRD5AIII in vitro assays. Ad-SRD5AIII infected CV-1 cells and uninfected CV-1 control cells were prepared and assayed for SRD5AIII using methods of Titus et al. (Titus et al. Clin Cancer Res 2005; 11:4365-4371) and Pratis et al. (Pratis et al. J Steroid Biochem Mol Biol 2000; 75:75-82). All steps prior to incubation were carried out at 4° C. SRD5AIII specific activity was expressed in pmol/mg protein/hr using Ad-SRD5AIII infected CV-1 cells.
Ad-SRD5AIII infected CV-1 cells or uninfected CV-1 cells were homogenized in 0.5 ml ice-cold homogenization buffer (50 mM potassium phosphate [pH 7.4], 0.25M sucrose, 1 mM EDTA, 1 mM dithiothreitol, 1 mM fresh phenylmethylsulfonyl chloride, 1× Complete™ protease inhibitor [Roche, Indianapolis, Ind.] using a PowerGen 125 (Fischer Scientific) for two 10-second bursts and sonicated (Branson Sonifier CD200, SmilthKine) at 20% power for 15 one-second bursts. Final homogenates were centrifuged at 500×g for 1 min to remove particulate. The resulting cell free supernatants were placed on ice and used immediately. Protein concentrations were measured using the procedure of Lowry et al. (Lowry et al. J Biol Chem 1951; 193:265-75).
The buffer for all incubations contained 100 mM Tris-citrate, 0.5 mM dithiothreitol, 0.5 mM NADPH and 1 μCi ^3H-testosterone (New England Nuclear, Boston, Mass.). […] Incubations were performed in total volume 250 μl at pH 7.0 and pH 5.0. […]
The conversion of T to dihydrotestosterone (DHT), androstanedione and androsterone was analyzed using thin layer chromatography (TLC, 33). […] Control incubations were analyzed as described above.
The amount of radioactive DHT, androstanedione and androsterone was calculated as percent total radioactivity (^3H) recovered from the thin layer chromatography lane. […]
Anti-6X-His and anti-X-press antibodies were used to evaluate the expression level of 6X-His and X-press-tagged SRD5AIII in infected CV1 cells. […] However, the molecular weight of the detected band was higher than the expected SRD5AIII molecular weight of about 37 kDa. […]

Molecule | Inhibition of SRD5A activity [1] | Efficacy as treatment for CaP [2] | Response in patients, early results [3] | pH optimum [4] | SRD5AIII enzyme activity ([4]; pH 5.0, 1 μM T substrate, n=1) | SRD5AIII specific activity after subtracting background activity ([4]; pH 7.0, 5 μM T substrate, n=3, Ad-SRD5AIII infected CV-1 cell homogenate) [pmol/mg protein/hour]
CC(C)(C)NC(=O)[C@H]1CC[C@H]2[C@@H]3CC[C@H]4NC(=O)C=C[C@]4(C)[C@H]3CC[C@]12C [finasteride] | neither finasteride nor dutasteride inhibits SRD5A activity completely | Lack of efficacy | – | – | – | –
C[C@]12C=CC(=O)N[C@@H]1CC[C@@H]1[C@@H]2CC[C@]2(C)[C@@H](C(=O)Nc3cc(C(F)(F)F)ccc3C(F)(F)F)CC[C@@H]12 [dutasteride, Dutasteride] | neither finasteride nor dutasteride inhibits SRD5A activity completely | – | incomplete remission | – | – | –
B1 | – | – | – | ~7.0 | not detected | 15.6
